From ChEMBL document CHEMBL4052709, “Novel analogs of N-acylhydroxyethylaminomethyl-4H-chromen-4-one scaffold as IL-5 inhibitors” (Bioorg Med Chem, 2017)

molecular target: T1, Interleukin-5 (Mus musculus) (UniProt P04401); assay: Inhibition of IL-5 in mouse Y16 cells assessed as reduction in cell proliferation at 30 uM after 48 hrs by WST-1 assay relative to control; format: cell-based
T1 sequence (whole entry): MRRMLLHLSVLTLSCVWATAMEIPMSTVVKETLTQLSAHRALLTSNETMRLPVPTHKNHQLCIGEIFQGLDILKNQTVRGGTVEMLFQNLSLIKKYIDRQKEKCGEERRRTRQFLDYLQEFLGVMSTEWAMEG

| Structure (SMILES) | inhibition |
| --- | --- |
| CC(C)CCOc1cccc2occ(CN(CCO)C(=O)Cc3ccccc3)c(=O)c12 | 37% |
| O=C(Nc1ccccc1)N(CCO)Cc1coc2cccc(OCC3CCCCC3)c2c1=O | 61% |
| CC(C)CCOc1cccc2occ(CN(CCO)C(=O)Oc3ccccc3)c(=O)c12 | 42% |
| O=C(NCc1ccccc1)N(CCO)Cc1coc2cccc(OCC3CCCCC3)c2c1=O | 95% |
| CCNC(=O)N(CCO)Cc1coc2cccc(OCC3CCCCC3)c2c1=O | 7% |
| CCCC(=O)N(CCO)Cc1coc2cccc(OCC3CCCCC3)c2c1=O | 61% |
| O=C(Nc1ccc(Cl)cc1)N(CCO)Cc1coc2cccc(OCC3CCCCC3)c2c1=O | 4% |
| CC(C)(C)CCOc1cccc2occ(CN(CCO)C(=O)Nc3ccccc3)c(=O)c12 | 47% |
| O=C(Oc1ccccc1)N(CCO)Cc1coc2cccc(OCC3CCCCC3)c2c1=O | 84% |
| O=C(NCCCc1ccccc1)N(CCO)Cc1coc2cccc(OCC3CCCCC3)c2c1=O | 95% |
| CC(C)(C)CCOc1cccc2occ(CN(CCO)C(=O)Cc3ccccc3)c(=O)c12 | 46% |
| COc1ccc(CC(=O)N(CCO)Cc2coc3cccc(OCC4CCCCC4)c3c2=O)cc1 | 92% |
| CC(C)CCOc1cccc2occ(CN(CCO)C(=O)Nc3ccccc3)c(=O)c12 | 35% |
| COc1ccc(NC(=O)N(CCO)Cc2coc3cccc(OCC4CCCCC4)c3c2=O)cc1 | 80% |
| CCCNC(=O)N(CCO)Cc1coc2cccc(OCC3CCCCC3)c2c1=O | 15% |
| O=C(Cc1ccccc1)N(CCO)Cc1coc2cccc(OCC3CCCCC3)c2c1=O | 95% |
| CC(C)(C)CCOc1cccc2occ(CN(CCO)C(=O)Oc3ccccc3)c(=O)c12 | 36% |
| CCC(=O)N(CCO)Cc1coc2cccc(OCC3CCCCC3)c2c1=O | 63% |
| O=C(NC1CCCCC1)N(CCO)Cc1coc2cccc(OCC3CCCCC3)c2c1=O | 85% |
| CC(C)NC(=O)N(CCO)Cc1coc2cccc(OCC3CCCCC3)c2c1=O | 6% |
| CCOC(=O)N(CCO)Cc1coc2cccc(OCC3CCCCC3)c2c1=O | 89% |

molecular target: T1, Interleukin-5 (Mus musculus); assay: Inhibition of IL-5 in mouse Y16 cells assessed as reduction in cell proliferation at 50 uM after 48 hrs by WST-1 assay relative to control; format: cell-based

| Structure (SMILES) | inhibition |
| --- | --- |
| O=c1c(-c2ccc(O[C@H]3O[C@@H](CO)[C@H](O)[C@@H](O)[C@@H]3O)cc2)coc2cc(O)cc(O)c12 | 79.1% |
